Data on six compounds can be found in US20090233937A1 (TAKEDA PHARMACEUTICAL COMPANY LIMITED, priority 2008, published 2009).

For this assay, the system named is human breast cancer cell BT-474. Description: Inhibitory action on breast cancer cell BT-474 proliferation in vitro. The assay is classed as cell-based. Conditions: 120 h, BT-474 cells, cultured for 5 days with compound, SRB dye protein content. On the procedure:
A suspension of human breast cancer cell BT-474 (100 μl (6,000 cells)) were plated in a 96-well microplate and cultured in an incubator (37° C., 5% carbon dioxide). On the following day, 100 μl of a solution of each test compound previously diluted serially in 2-fold, was added, and the cells were cultured for 5 days. After the culture medium containing the test compound was removed, the cells were washed and fixed with 50% trichloroacetic acid, after which a 0.4% (w/v) SRB dye solution (dissolved in 1% acetic acid) was added to stain as well as fix the cell protein (Skehan et al., Journal of the National Cancer Institute, Vol. 82, pp. 1107-1112, 1990). After washing with a 1% acetic acid solution, 100 μl of extract solution (10 mM, Tris buffer) was added to extract the dye and the absorbance was measured at a wavelength of 550 nm to quantify the amount of cells as protein content.
Background: The SRB assay estimates cell density from bound dye.
A word on the IC50: it is the concentration at which inhibition is half-maximal. On to `OCCn1ccc2ncnc(Nc3ccc(Oc4cccc5sncc45)c(Cl)c3)c21` [Example 3, 2-(4-{[4-(1,2-benzoisothiazol-4-yloxy)-3-chlorophenyl]amino}-5H-pyrrolo[3,2-d]pyrimidin-5-yl)ethanol], for which the IC50 is under 100 nM.
Regarding `CC(=O)NCCn1ccc2ncnc(Nc3ccc(Oc4cccc5sncc45)c(Cl)c3)c21` [Example 7, N-[2-(4-{[4-(1,2-benzoisothiazol-4-yloxy)-3-chlorophenyl]amino}-5H-pyrrolo[3,2-d]pyrimidin-5-yl)ethyl]acetamide methanesulfonate], the IC50 is under 100 nM.
For the compound `CC(C)(CO)C(=O)NCCn1ccc2ncnc(Nc3ccc(Oc4cccc5sncc45)c(F)c3)c21` [Example 11, N-[2-(4-{[4-(1,2-benzoisothiazol-4-yloxy)-3-fluorophenyl]amino}-5H-pyrrolo[3,2-d]pyrimidin-5-yl)ethyl]-3-hydroxy-2,2-dimethylpropanamide], the IC50 is under 100 nM.
As for `Cc1cc(Nc2ncnc3ccn(CCNC(=O)C(C)(C)CO)c23)ccc1Oc1cccc2sncc12` [Example 39, N-[2-(4-{[4-(1,2-benzoisothiazol-4-yloxy)-3-methylphenyl]amino}-5H-pyrrolo[3,2-d]pyrimidin-5-yl)ethyl]-3-hydroxy-2,2-dimethylpropanamide], the figure is under 100 nM; as for `CC(C)(N)C(=O)NCCn1ccc2ncnc(Nc3ccc(Oc4cccc5sncc45)c(Cl)c3)c21` [Example 53, N-[2-(4-{[4-(1,2-benzoisothiazol-4-yloxy)-3-chlorophenyl]amino}-5H-pyrrolo[3,2-d]pyrimidin-5-yl)ethyl]-2-methylalaninamide dimethanesulfonate], under 100 nM.
Then `CC(C)NC(=O)NCCn1ccc2ncnc(Nc3ccc(Oc4cccc5sncc45)c(Cl)c3)c21` [Example 54, 1-[2-(4-{[4-(1,2-benzoisothiazol-4-yloxy)-3-chlorophenyl]amino}-5H-pyrrolo[3,2-d]pyrimidin-5-yl)ethyl]-3-(1-methylethyl)urea methanesulfonate], with under 100 nM.
